Experimental data published in ChEMBL document CHEMBL4507291 (2021).

Key:
[1] = target: Ribosomal protein S6 kinase alpha-2 (Homo sapiens) (UniProt Q15349); test: RPS6KA2 (RSK3) Kinase screen; details: Compound concentration 1.0 uM
[2] = target: Calcium/calmodulin-dependent protein kinase type II subunit alpha (Homo sapiens) (UniProt Q9UQM7); test: CAMK2A (CaMKII alpha) Kinase screen; details: Compound concentration 1.0 uM
[3] = target: T1, Inhibitor of nuclear factor kappa-B kinase subunit beta (Homo sapiens) (UniProt O14920); test: IKBKB (IKK beta) Kinase screen; details: Compound concentration 1.0 uM
T1 sequence (whole entry): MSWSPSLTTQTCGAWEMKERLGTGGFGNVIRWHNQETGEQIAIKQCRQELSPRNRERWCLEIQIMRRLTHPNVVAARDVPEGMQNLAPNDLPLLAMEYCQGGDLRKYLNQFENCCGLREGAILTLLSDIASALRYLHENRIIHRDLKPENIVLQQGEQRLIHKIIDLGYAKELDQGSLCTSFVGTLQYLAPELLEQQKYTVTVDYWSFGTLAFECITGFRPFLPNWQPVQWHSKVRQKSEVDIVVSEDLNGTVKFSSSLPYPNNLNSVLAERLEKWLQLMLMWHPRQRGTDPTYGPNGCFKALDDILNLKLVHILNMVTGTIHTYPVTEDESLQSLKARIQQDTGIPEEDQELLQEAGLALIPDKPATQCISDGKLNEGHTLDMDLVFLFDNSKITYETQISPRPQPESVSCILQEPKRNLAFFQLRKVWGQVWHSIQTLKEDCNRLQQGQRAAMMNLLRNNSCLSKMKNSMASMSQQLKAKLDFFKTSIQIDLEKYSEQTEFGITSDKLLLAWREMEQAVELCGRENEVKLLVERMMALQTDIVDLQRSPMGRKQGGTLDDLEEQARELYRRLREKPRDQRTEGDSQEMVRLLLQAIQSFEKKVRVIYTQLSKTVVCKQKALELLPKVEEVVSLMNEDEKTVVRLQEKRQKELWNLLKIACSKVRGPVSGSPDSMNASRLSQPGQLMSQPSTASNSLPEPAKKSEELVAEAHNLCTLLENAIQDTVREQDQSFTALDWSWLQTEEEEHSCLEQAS

[4] = target: Receptor-type tyrosine-protein kinase FLT3 (Homo sapiens) (UniProt P36888); test: FLT3 Kinase screen; details: Compound concentration 1.0 uM
[5] = target: Protein kinase C delta type (Homo sapiens) (UniProt Q05655); test: PRKCD (PKC delta) Kinase screen; details: Compound concentration 1.0 uM
[6] = target: Tyrosine-protein kinase BTK (Homo sapiens) (UniProt Q06187); test: BTK Kinase screen; details: Compound concentration 1.0 uM
[7] = target: Activated CDC42 kinase 1 (Homo sapiens) (UniProt Q07912); test: TNK2 (ACK) Kinase screen; details: Compound concentration 1.0 uM
[8] = target: T2, NUAK family SNF1-like kinase 1 (Homo sapiens) (UniProt O60285); test: NUAK1 (ARK5) Kinase screen; details: Compound concentration 1.0 uM
T2 sequence (whole entry): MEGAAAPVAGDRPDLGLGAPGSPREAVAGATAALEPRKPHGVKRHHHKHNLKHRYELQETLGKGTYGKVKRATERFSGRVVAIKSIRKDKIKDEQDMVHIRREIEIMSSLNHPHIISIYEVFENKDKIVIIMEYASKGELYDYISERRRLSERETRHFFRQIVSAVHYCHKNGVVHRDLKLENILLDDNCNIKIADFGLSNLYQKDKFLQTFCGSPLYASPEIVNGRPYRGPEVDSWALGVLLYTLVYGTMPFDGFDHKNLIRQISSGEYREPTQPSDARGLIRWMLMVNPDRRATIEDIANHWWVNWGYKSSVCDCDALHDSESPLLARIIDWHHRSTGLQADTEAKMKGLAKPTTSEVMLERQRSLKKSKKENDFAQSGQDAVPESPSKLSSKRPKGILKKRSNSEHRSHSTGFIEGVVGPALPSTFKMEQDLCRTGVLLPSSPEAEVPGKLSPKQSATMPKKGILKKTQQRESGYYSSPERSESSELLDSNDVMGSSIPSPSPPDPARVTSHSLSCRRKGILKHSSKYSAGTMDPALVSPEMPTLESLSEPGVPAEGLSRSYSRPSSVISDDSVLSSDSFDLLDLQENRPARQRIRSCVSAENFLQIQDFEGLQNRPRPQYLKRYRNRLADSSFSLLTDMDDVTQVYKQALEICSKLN

[9] = target: T3, Serine/threonine-protein kinase TAO3 (Homo sapiens) (UniProt Q9H2K8); test: TAOK3 (JIK) Kinase screen; details: Compound concentration 1.0 uM
T3 sequence (whole entry): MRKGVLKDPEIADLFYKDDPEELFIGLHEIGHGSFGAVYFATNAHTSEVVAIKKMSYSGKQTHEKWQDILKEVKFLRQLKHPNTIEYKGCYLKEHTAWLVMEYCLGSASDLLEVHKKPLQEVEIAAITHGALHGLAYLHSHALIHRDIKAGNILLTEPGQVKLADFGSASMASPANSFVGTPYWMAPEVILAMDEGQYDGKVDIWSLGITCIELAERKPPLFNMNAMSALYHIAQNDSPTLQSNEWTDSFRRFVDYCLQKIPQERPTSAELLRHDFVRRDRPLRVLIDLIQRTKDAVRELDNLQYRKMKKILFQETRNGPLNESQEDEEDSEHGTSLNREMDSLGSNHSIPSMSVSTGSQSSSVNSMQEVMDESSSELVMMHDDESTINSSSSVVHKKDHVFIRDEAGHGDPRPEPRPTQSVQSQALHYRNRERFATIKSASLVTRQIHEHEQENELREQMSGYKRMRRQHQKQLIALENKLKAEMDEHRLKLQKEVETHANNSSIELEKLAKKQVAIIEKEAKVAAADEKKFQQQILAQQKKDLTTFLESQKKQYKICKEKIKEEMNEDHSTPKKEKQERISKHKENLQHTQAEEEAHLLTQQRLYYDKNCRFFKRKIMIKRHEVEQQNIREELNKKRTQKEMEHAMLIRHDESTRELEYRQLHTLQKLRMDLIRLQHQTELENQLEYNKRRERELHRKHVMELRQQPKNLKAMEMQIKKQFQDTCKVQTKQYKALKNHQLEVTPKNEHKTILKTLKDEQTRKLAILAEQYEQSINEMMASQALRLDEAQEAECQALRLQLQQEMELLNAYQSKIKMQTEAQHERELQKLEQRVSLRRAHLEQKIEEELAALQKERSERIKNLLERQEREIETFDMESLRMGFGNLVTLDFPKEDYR

[10] = target: Tyrosine-protein kinase Lyn (Homo sapiens) (UniProt P07948); test: LYN B Kinase screen; details: Compound concentration 1.0 uM
[11] = target: Cathepsin G (Homo sapiens) (UniProt P08311); test: Inhibition of Peptidase, CTSG (Cathepsin G) at 10 µM in the Eurofins-Panlabs enzyme assay (Eurofins_assay_112510); parameters: substrate with concentration; details: Compound concentration 10.0 uM
[12] = target: NT-3 growth factor receptor (Homo sapiens) (UniProt Q16288); test: NTRK3 (TRKC) Kinase screen; details: Compound concentration 1.0 uM
[13] = test system: Proto-oncogene tyrosine-protein kinase receptor Ret (Homo sapiens), P07949 [Y791F]; test: RET Y791F Kinase screen; details: Compound concentration 1.0 uM
[14] = target: Serine/threonine-protein kinase MRCK beta (Homo sapiens) (UniProt Q9Y5S2); test: CDC42 BPB (MRCKB) Kinase screen; details: Compound concentration 1.0 uM
[15] = target: Protein kinase C zeta type (Homo sapiens) (UniProt Q05513); test: PRKCZ (PKC zeta) Kinase screen; details: Compound concentration 1.0 uM

Measured: inhibition

Serine/threonine-protein kinase MRCK beta (Homo sapiens), sequence (Q9Y5S2 whole entry): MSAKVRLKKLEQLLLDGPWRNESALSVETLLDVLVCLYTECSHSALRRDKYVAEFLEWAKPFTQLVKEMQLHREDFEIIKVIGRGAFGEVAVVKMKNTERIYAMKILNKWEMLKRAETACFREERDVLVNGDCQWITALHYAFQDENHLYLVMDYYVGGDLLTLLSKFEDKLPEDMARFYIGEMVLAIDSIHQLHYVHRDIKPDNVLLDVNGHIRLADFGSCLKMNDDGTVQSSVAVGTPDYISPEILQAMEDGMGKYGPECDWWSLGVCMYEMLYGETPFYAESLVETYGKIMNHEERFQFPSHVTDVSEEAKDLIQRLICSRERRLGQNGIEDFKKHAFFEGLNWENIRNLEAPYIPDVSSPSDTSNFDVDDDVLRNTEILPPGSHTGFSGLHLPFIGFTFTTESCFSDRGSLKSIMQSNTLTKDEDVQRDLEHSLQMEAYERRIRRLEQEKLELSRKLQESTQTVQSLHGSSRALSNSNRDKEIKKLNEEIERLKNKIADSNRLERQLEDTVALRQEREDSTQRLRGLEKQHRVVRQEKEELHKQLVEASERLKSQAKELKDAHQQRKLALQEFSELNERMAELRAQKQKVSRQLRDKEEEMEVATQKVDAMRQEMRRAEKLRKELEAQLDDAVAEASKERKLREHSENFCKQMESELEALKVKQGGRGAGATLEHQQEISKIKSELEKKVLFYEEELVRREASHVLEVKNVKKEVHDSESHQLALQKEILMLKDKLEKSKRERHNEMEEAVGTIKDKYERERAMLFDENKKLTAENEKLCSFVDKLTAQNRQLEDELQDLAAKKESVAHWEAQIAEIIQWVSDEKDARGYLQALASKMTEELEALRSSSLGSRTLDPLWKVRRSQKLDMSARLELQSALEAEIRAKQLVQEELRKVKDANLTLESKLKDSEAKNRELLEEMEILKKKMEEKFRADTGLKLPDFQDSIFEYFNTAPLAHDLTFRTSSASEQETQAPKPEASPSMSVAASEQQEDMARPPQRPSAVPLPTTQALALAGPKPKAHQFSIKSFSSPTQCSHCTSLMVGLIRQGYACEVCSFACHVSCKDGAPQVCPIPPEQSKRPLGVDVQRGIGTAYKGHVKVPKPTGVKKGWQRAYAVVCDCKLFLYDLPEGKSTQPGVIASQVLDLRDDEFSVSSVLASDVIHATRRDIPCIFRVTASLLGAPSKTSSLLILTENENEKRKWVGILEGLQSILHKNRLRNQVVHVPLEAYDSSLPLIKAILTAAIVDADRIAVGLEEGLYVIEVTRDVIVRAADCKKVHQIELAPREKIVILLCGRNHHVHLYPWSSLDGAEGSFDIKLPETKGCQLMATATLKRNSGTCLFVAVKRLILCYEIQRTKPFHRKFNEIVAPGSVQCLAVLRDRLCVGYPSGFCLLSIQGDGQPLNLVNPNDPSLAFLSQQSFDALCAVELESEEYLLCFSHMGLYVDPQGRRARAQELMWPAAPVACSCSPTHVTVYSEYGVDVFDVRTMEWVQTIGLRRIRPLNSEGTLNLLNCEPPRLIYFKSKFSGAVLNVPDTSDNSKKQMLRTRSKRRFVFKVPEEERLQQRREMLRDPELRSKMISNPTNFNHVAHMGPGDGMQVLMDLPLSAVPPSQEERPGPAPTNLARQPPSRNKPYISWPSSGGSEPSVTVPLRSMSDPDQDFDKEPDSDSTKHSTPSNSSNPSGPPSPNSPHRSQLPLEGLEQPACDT
Protein kinase C delta type (Homo sapiens), sequence (Q05655 whole entry, looked up): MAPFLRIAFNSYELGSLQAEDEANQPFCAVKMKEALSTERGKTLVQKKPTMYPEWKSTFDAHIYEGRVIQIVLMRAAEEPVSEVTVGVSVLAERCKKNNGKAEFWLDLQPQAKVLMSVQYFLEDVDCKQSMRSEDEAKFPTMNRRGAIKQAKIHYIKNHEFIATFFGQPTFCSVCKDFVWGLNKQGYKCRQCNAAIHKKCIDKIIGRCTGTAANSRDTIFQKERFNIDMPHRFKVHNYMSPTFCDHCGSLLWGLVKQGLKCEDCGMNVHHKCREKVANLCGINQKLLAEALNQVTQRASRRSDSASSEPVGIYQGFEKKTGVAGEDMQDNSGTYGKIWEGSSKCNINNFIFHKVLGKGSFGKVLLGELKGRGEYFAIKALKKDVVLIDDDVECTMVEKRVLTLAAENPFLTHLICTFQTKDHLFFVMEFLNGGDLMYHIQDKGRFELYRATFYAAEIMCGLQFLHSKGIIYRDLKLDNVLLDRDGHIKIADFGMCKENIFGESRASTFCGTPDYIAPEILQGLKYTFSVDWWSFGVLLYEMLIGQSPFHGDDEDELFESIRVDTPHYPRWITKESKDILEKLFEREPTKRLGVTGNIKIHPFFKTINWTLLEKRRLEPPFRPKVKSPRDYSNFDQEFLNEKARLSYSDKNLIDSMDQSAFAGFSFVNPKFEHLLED
Proto-oncogene tyrosine-protein kinase receptor Ret (Homo sapiens), P07949 [Y791F], sequence (P07949 whole entry Y791F): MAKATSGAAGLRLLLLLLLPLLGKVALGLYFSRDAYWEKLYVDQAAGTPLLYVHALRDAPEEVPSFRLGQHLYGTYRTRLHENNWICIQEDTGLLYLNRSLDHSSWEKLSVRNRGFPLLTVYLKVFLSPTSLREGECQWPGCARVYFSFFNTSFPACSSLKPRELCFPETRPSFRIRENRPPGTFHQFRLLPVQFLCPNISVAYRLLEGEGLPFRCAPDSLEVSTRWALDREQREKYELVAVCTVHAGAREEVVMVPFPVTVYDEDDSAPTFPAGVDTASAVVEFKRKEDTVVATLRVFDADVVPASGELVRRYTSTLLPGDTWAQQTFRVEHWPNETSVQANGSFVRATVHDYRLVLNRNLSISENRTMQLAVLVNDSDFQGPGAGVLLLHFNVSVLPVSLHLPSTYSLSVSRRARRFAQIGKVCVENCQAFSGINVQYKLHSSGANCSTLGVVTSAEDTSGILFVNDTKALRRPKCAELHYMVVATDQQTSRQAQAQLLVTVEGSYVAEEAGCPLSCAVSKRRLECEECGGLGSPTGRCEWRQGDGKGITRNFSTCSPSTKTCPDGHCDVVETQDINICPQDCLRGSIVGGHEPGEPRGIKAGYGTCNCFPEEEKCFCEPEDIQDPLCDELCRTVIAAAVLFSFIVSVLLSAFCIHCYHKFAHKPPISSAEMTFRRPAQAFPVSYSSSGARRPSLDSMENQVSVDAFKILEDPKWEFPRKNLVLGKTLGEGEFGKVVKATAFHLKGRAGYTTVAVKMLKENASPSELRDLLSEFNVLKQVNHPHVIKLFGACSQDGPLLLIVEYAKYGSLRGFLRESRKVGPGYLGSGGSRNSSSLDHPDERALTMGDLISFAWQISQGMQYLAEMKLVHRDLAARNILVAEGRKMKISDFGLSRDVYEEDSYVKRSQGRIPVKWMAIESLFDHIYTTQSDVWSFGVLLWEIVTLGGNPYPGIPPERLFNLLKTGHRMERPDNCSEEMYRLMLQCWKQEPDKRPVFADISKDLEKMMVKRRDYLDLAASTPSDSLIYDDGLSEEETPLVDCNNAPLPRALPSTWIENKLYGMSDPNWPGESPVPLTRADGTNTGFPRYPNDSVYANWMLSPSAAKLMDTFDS
Tyrosine-protein kinase BTK (Homo sapiens), sequence (Q06187 whole entry): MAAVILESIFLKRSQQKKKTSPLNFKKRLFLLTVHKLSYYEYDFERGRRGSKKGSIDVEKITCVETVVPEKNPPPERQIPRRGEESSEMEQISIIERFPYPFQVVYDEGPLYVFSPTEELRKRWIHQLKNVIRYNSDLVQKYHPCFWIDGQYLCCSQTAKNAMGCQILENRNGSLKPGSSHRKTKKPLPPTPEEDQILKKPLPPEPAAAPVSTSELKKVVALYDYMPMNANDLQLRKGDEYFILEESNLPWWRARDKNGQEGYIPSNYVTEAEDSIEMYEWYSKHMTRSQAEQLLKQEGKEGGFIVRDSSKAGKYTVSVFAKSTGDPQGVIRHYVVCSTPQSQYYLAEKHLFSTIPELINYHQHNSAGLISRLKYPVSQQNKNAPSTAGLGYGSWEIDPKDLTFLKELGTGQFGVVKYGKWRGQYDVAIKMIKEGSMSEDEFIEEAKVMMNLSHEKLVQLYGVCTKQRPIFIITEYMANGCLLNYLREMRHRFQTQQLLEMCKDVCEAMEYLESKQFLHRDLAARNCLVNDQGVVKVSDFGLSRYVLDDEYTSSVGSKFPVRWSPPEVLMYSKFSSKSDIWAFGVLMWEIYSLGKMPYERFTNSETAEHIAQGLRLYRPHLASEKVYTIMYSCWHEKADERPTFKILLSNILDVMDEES
Protein kinase C zeta type (Homo sapiens), sequence (Q05513 whole entry): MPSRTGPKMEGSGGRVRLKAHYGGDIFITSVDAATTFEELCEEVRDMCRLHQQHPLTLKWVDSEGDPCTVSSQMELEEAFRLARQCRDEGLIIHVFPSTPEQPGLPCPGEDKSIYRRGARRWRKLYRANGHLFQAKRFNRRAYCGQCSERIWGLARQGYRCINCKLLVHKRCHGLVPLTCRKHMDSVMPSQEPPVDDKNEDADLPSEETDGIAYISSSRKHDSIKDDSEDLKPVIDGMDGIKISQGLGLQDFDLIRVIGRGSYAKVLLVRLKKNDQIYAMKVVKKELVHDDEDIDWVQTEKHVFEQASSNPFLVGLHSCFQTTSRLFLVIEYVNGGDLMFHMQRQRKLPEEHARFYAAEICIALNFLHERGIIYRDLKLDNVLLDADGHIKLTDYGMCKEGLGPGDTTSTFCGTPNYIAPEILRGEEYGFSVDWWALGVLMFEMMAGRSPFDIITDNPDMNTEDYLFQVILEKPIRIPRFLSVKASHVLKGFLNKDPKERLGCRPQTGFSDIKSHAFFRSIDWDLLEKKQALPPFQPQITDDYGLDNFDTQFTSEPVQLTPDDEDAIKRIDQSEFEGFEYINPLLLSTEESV
Cathepsin G (Homo sapiens), sequence (P08311 whole entry): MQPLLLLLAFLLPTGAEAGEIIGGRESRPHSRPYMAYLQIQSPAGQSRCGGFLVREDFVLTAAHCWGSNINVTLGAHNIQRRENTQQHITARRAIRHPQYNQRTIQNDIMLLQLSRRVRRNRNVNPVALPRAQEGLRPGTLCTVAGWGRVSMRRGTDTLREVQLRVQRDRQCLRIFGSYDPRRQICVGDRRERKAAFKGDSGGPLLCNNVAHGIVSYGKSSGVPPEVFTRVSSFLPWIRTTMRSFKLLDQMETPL

C[C@@H]1CN(c2cc(-c3n[nH]c4ccc(OC5(C)CC5)cc34)ncn2)C[C@H](C)O1 [MLi-2]
inactive: [1] 7.53% | [2] 7.96% | [3] -0.0171% | [4] 2.53% | [5] 3.65% | [6] 4.5% | [7] 22.9% | [8] 14.5% | [9] 0.385% | [10] 3.94% | [11] 9% | [12] 14.9% | [13] 5.35% | [14] 4.34% | [15] -4.02%
